Laboratory results reported in patent publication US20060025474A1, “Bisphenyl compounds useful as vitamin D3 receptor agonists” (priority 2004, published 2006).

Tested on: ECAC2 mRNA in Caco-2 cells
Assay type: cell-based
Description: The mRNA Expression Assay of ECAC2 in Caco-2 Cells
The dispersed cells were plated in 48-well plate at a concentration of 6.3×10^4 cells/well and incubated for 4 days at 37° C. The culture medium (Dulbecco's Modified Eagle Medium (D-MEM) without NaHCO3 with 44 mM NaHCO3, 1 mM non-essential amino acids, and 2 mM L-glutamine, 90%; fetal bovine serum, 10%) was then replaced with the same medium containing various concentrations of LG190178 (the compound disclosed in WO00/10958 and the corresponding U.S. Pat. No. 6,218,430 B1) or the compounds of the present invention, and cells were cultured for 1 day at 37° C. The culture medium containing the compounds was changed twice per day.
Total RNA Isolation from Caco-2 Cell
Total RNA was isolated from Caco-2 cell following ABI PRISM™ 6100 Nucleic Acid PrepStation protocol from Applied Biosystems.
Real Time RT-PCR Assay of ECAC2
ECAC2 mRNA expression was determined using TaqMan One-step RT-PCR Master Mix Reagents Kit and PRISM7000 systems from Applied Biosystems.
Primer information and cycle conditions are 1)ECAC2, forward 5′-[…]-3′, reverse 5′-GTCCTCTGTCTGGMGATGA-3′, Taqman probe 5′-[…]-3′, 55 cycles, annealing temperature (Ta)=60° C.; 2)GAPDH, forward 5′-GMGGTGMGGTCGGAGTC-3′, reverse 5′-GMGATGGTGATGGGATTTC-3′, Taqman probe 5′-[…]-3′, 55 cycles, Ta=60° C. ECAC2 mRNA values were normalized for the expression of GAPDH mRNA within each sample.
Comparison of ECAC2 mRNA Value
The EC50 values of ECAC2 mRNA values were analyzed by Emax models. The ECAC2 mRNA ratio was calculated as the ratio of the EC50 value of the compounds to that of LG190178. ECAC2 is a channel-like transporter mediating intestinal calcium absorption. It is described in J Biol Chem. Aug. 6, 1999; 274(32):22739-46 for example.

ECaC-2 mRNA induction activity in Caco-2 cells [%] | Structure (SMILES)
49 | CCC(CC)(c1ccc(C#CC(O)(C(F)(F)F)C(F)(F)F)c(C)c1)c1ccc(OC[C@@H](O)CCC(=O)O)c(C)c1 [Example 2, (S)-5-(4-{1-ethyl-1-[3-methyl-4-(4,4,4-trifluoro-3-hydroxy-3-trifluoromethyl-but-1-ynyl)-phenyl]-propyl}-2-methyl-phenoxy)-4-hydroxy-pentanoic acid]
1662 | CCC(CC)(c1ccc(C#CC(O)(C(F)(F)F)C(F)(F)F)c(C)c1)c1ccc(OC[C@@H](O)CCCO)c(C)c1 [Example 153, (S)-5-(4-{1-Ethyl-1-[3-methyl-4-(4,4,4-trifluoro-3-hydroxy-3-trifluoromethyl-but-1-ynyl)-phenyl]-propyl}-2-methyl-phenoxy)-pentane-1,4-diol]
166 | CCC(CC)(c1ccc(CCC(O)C(C)(C)C)c(C)c1)c1ccc(OCCCCCN)c(C)c1 (stereo not shown) [Example 102, 1-(4-{1-[4-(5-amino-pentyloxy)-3-methyl-phenyl]-1-ethyl-propyl}-2-methyl-phenyl)-4,4-dimethyl-pentan-3-ol]
639 | CCC(CC)(c1ccc(/C=C/C2(O)CCCCC2)c(C)c1)c1ccc(OC[C@@H](O)CCC(=O)O)c(C)c1 [Example 37, (S)-5-[4-(1-ethyl-1-{4-[(E)-2-(1-hydroxy-cyclohexyl)-vinyl]-3-methyl-phenyl}-propyl)-2-methyl-phenoxy]-4-hydroxy-pentanoic acid]
57 | CCC(CC)(c1ccc(CCC(O)C(C)(C)C)c(C)c1)c1ccc(OC[C@@H](O)CCCC(=O)O)c(C)c1 (stereo partly drawn) [Example 186, 6-(4-{1-Ethyl-1-[4-(3-hydroxy-4,4-dimethyl-pentyl)-3-methyl-phenyl]-propyl}-2-methyl-phenoxy)-5(S)-hydroxy-hexanoic acid]
860 | CCC(CC)(c1ccc(/C=C/C(O)C(C)(C)C)c(C)c1)c1ccc(OC[C@@H](O)CO)c(C)c1 (stereo partly drawn) [Example 67, 3-(4-{1-ethyl-1-[4-((E)-3-hydroxy-4,4-dimethyl-pent-1-enyl)-3-methyl-phenyl]-propyl}-2-methyl-phenoxy)-propane--1,2(S)-diol]
114 | CCC(CC)(c1ccc(C#CC(O)C(C)(C)C)c(C)c1)c1ccc(OC[C@@H](O)CCC(=O)O)c(C)c1 (stereo partly drawn) [Example 27, 5-(4-{1-ethyl-1-[4-(3-hydroxy-4,4-dimethyl-pent-1-ynyl)-3-methyl-phenyl]-propyl}-2-methyl-phenoxy)-4(S)-hydroxy-pentanoic acid]
126 | CCC(CC)(c1ccc(C#CC(O)C(C)(C)C)c(C)c1)c1ccc(OC[C@@H](O)CO)c(C)c1 (stereo partly drawn) [Example 66, 3-(4-{1-ethyl-1-[4-(3-hydroxy-4,4-dimethyl-pent-1-ynyl)-3-methyl-phenyl]-propyl}-2-methyl-phenoxy)-propane-1,2(S)-diol]
545 | CCC(CC)(c1ccc(CCC(O)C(C)(C)C)c(C)c1)c1ccc(OC[C@@H](O)CCCC(=O)O)c(C)c1 (stereo partly drawn) [Example 187, 6-(4-{1-Ethyl-1-[4-(3-hydroxy-4,4-dimethyl-pentyl)-3-methyl-phenyl]-propyl}-2-methyl-phenoxy)-5(S)-hydroxy-hexanoic acid]
323 | CCC(O)(/C=C/c1ccc(C(CC)(CC)c2cc(C)c(OC[C@@H](O)CCC(=O)O)c(C)c2)cc1C)CC [Example 167, (S)-5-(4-{1-Ethyl-1-[4-((E)-3-ethyl-3-hydroxy-pent-1-enyl)-3-methyl-phenyl]-propyl}-2,6-dimethyl-phenoxy)-4-hydroxy-pentanoic acid]
36 | CCC(O)(/C=C/c1ccc(C(CC)(CC)c2ccc(OC[C@@H](O)CCC(=O)O)c(C)c2)cc1C)CC [Example 1, (S)-5-(4-{1-ethyl-1-[4-((E)-3-ethyl-3-hydroxy-pent-1-enyl)-3-methyl-phenyl]-propyl}-2-methyl-phenoxy)-4-hydroxy-pentanoic acid]

Continued, molecule first:

Structure (SMILES) | ECaC-2 mRNA induction activity in Caco-2 cells [%]
CCC(O)(/C=C/c1ccc(C(CC)(CC)c2ccc(OC[C@H]3CCC(=O)O3)c(C)c2)cc1C)CC [Example 44, (R)-5-(4-{1-ethyl-1-[4-((E)-3-ethyl-3-hydroxy-pent-1-enyl)-3-methyl-phenyl]-propyl}-2-methyl-phenoxymethyl)-dihydro-furan-2-one] | 96
CCC(O)(/C=C/c1ccc(C(CC)(CC)c2ccc(OC[C@@H](O)CCC(=O)O)cc2)cc1C)CC [Example 165, (S)-5-(4-{1-Ethyl-1-[4-((E)-3-ethyl-3-hydroxy-pent-1-enyl)-3-methyl-phenyl]-propyl}-phenoxy)4-hydroxy-pentanoic acid] | 2017
CCC(O)(/C=C/c1ccc(C(CC)(CC)c2ccc(OCC(CO)CO)c(C)c2)cc1C)CC [Example 72, 2-(4-{1-Ethyl-1-[4-((E)-3-ethyl-3-hydroxy-pent-1-enyl)-3-methyl-phenyl]-propyl}-2-methyl-phenoxymethyl)-propane-1,3-diol] | 542
CCC(CC)(c1ccc(/C=C/C(O)(C(F)(F)F)C(F)(F)F)c(C)c1)c1ccc(OC[C@@H](O)CO)c(C)c1 [Example 69, (S)-3-(4-{1-ethyl-1-[3-methyl-4-((E)-4,4,4-trifluoro-3-hydroxy-3-trifluoromethyl-but-1-enyl)-phenyl]-propyl}-2-methyl-phenoxy)-propane-1,2-diol] | >10000
CCc1cc(C(CC)(CC)c2ccc(C(=O)N[C@@H](C)C(=O)O)s2)ccc1OCC(C)(O)C(C)(C)C (single isomer, unassigned) [Compound C, reference compound] | 34
CCc1cc(C(CC)(CC)c2ccc(C(=O)N[C@@H](C)C(=O)O)s2)ccc1OCC(C)(O)C(C)(C)C (single isomer, unassigned) [Compound D, reference compound] | 14
CCC(O)(/C=C/c1ccc(C(CC)(CC)c2ccc(OCC(=O)NCCN)c(C)c2)cc1C)CC [Example 195, (E)-N-(2-Amino-ethyl)-2-(4-{1-ethyl-1-[4-(3-ethyl-3-hydroxy-pent-1-enyl)-3-methyl-phenyl]-propyl}-2-methyl-phenoxy)-acetamide] | 135
CCC(CC)(c1ccc(/C=C/C2(O)CCCCC2)c(C)c1)c1ccc(OCCCCC(=O)O)c(C)c1 [Example 88, 5-[4-(1-ethyl-1-{4-[(E)-2-(1-hydroxy-cyclohexyl)-vinyl]-3-methyl-phenyl}-propyl)-2-methyl-phenoxy]-pentanoic acid] | 845
CCC(O)(/C=C/c1ccc(C(CC)(CC)c2ccc(OCCCCCN)c(C)c2)cc1C)CC [Example 119, (E)-1-(4-{1-[4-(5-Amino-pentyloxy)-3-methyl-phenyl]-1-ethyl-propyl}-2-methyl-phenyl)-3-ethyl-pent-1-en-3-ol] | 12
CCC(CC)(c1ccc(/C=C/C(O)(C(F)(F)F)C(F)(F)F)c(C)c1)c1ccc(OCC(CO)CO)c(C)c1 [Example 78, 2-(4-{1-ethyl-1-[3-methyl-4-((E)-4,4,4-trifluoro-3-hydroxy-3-trifluoromethyl-but-1-enyl)-phenyl]-propyl}-2-methyl-phenoxymethyl)-propane-1,3-diol] | 6659
CCC(O)(/C=C/c1ccc(C(CC)(CC)c2ccc(OCc3ccc(C(=O)O)cc3)c(C)c2)cc1C)CC [Example 147, 4-(4-{I-Ethyl-1-[4-((E)-3-ethyl-3-hydroxy-pent-1-enyl)-3-methyl-phenyl]-propyl}-2-methyl-phenoxymethyl)-benzoic acid] | 75
CCC(CC)(c1ccc(C#CC(O)(C(F)(F)F)C(F)(F)F)c(C)c1)c1ccc(CCC(=O)O)c(C)c1 [Example 106, 3-(4-{1-ethyl-1-[3-methyl-4-(4,4,4-trifluoro-3-hydroxy-3-trifluoromethyl-but-1-ynyl)-phenyl]-propyl}-2-methyl-phenyl)-propionic acid] | 399
CCC(CC)(c1ccc(/C=C/C(O)(C(F)(F)F)C(F)(F)F)c(C)c1)c1ccc(OCCCCc2nnn[nH]2)c(C)c1 [Example 115, (E)-4-[4-(1-ethyl-1-{3-methyl-4-[4-(1 H-tetrazol-5-yl)-butoxy]-phenyl}-propyl)-2-methyl-phenyl]-1,1,1-trifluoro-2-trifluoromethyl-but-3-en-2-ol] | 91
CCC(CC)(c1ccc(/C=C/C(O)(C(F)(F)F)C(F)(F)F)c(C)c1)c1ccc(OC[C@H]2CCC(=O)O2)c(C)c1 [Example 48, (R)-5-(4-{1-ethyl-1-[3-methyl-4-((E)-4,4,4-trifluoro-3-hydroxy-3-trifluoromethyl-but-1-enyl)-phenyl]-propyl}-2-methyl-phenoxymethyl)-dihydro-furan-2-one] | 519
